Experimental data from PubChem BioAssay AID1396 (The Scripps Research Institute Molecular Screening Center, 2008).
Activity calls are given as the source filed them. How the calls were made is not given here.

Target: Signal transducer and activator of transcription 1-alpha/beta (Homo sapiens) (UniProt P42224)
Experiment: STAT1 signalling inhibitors, dose response, cell-based, NIH 3T3, luciferase reporter (AID 1396)
Settings: NIH 3T3 fibroblasts

Sequence of Signal transducer and activator of transcription 1-alpha/beta (Homo sapiens) (P42224 whole entry, looked up): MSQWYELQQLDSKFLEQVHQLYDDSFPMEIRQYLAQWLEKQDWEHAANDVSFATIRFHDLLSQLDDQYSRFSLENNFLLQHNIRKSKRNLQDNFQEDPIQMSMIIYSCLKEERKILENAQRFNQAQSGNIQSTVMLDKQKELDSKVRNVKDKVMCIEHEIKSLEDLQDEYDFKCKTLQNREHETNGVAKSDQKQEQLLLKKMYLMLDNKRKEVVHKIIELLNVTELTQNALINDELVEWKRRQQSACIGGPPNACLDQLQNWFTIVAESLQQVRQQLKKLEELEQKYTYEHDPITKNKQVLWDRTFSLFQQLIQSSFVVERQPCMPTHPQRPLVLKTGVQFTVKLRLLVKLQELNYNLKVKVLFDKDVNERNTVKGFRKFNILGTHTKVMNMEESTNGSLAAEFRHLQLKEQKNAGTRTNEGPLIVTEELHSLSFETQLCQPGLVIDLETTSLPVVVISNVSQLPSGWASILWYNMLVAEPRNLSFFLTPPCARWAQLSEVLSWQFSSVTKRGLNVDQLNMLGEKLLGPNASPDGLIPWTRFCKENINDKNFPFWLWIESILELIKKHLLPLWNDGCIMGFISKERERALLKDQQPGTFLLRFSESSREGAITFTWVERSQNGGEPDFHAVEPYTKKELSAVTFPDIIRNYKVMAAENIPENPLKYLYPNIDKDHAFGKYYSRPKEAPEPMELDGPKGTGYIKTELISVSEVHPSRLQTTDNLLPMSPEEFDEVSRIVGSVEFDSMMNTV

| IC50 | SMILES |
| --- | --- |
| inactive | COC(=O)CCS(=O)(=O)c1nc(-c2ccccc2)cc(C(F)(F)F)n1 |
| > 55.7 µM (inactive) | CCOc1cc(-c2noc(N)c2C#N)cc(OCC)c1OCC |
| 5.2 µM | Cc1ccc(-n2nc(C(=O)O)c3ccccc3c2=O)cc1C |
| > 18.6 µM (inactive) | COc1ccccc1-c1cc(C(F)(F)F)nc(S(=O)(=O)CCCC(=O)Nc2cccnc2Cl)n1 |
| 9.97 µM | CS(=O)(=O)c1nc(-c2ccccc2)cc(C(F)(F)F)n1 |
| inactive | CCn1c(=O)c2cc(C(=O)N3CCCC3)sc2c2ccccc21 |
| 9.39 µM | O=C(CSc1nc2ccccc2c(=O)[nH]1)c1ccc(O)cc1O |
| 9.25 µM | Cc1cc(=O)n(C(NC(=O)c2ccccc2)C(=O)c2ccccc2)cn1 (centres undefined) |
| > 55.7 µM (inactive) | Cc1cccc(/C=C(\c2nc3ccccc3[nH]2)S(=O)(=O)c2ccccc2)c1 |
| > 55.7 µM (inactive) | Cc1ccc2[nH]c3c(N4CCN(Cc5ccccc5)CC4)ncnc3c2c1 |
| inactive | COc1ccc(-c2cc(C(F)(F)F)nc(S(=O)(=O)CCCC(=O)Nc3cc(C)on3)n2)cc1OC |
| inactive | Cc1cc(NC(=O)CCCS(=O)(=O)c2nc(-c3cccs3)cc(C(F)(F)F)n2)no1 |
| inactive | COC(=O)C1=CN(Cc2ccc(OC)c(OC)c2)C=C(C(=O)OC)C1c1cccs1 |
| inactive | CCN(CC)S(=O)(=O)c1ccc(N2CCOCC2)c(NC(=O)c2cc(-c3ccccn3)nc3ccccc23)c1 |
| 4.36 µM | O=c1cc(CSc2nc3ccccc3c(=O)[nH]2)c2ccc(O)cc2o1 |
| > 55.7 µM (inactive) | O=C(NNC(=O)c1cccc(S(=O)(=O)N2CCc3ccccc32)c1)c1ccccc1 |
| inactive | COc1ccc(CCNC(=O)Cn2c(=O)n(-c3ccc(F)cc3)c(=O)c3sccc32)cc1OC |
| inactive | CS(=O)(=O)c1nc(-c2ccc(F)cc2)cc(C(F)(F)F)n1 |
| 3.47 µM | CCOC(=O)N1CCN(C(=O)c2ccc(-n3c(=S)[nH]c4ccccc4c3=O)cc2)CC1 |
| inactive | CCOC(=O)CCS(=O)(=O)c1nc(-c2ccccc2)cc(C(F)(F)F)n1 |
| 9.58 µM | CN1CCN(Cc2nc3ccccc3c(=O)n2Cc2nc(-c3ccc4ccccc4c3)cs2)CC1 |
| > 55.7 µM (inactive) | COc1ccc(CCNc2ncnc3cc(OC)c(OC)cc23)cc1OC |
| inactive | Cc1ccc(C(=O)Nc2cccc(N(C)S(C)(=O)=O)c2)cc1S(=O)(=O)Nc1ccccc1 |
| inactive | COc1ccc(-c2cc(C(F)(F)F)nc(S(=O)(=O)CCCC(=O)Nc3cccc(O)c3)n2)cc1OC |
| > 18.6 µM (inactive) | COc1ccccc1-c1cc(C(F)(F)F)nc(S(C)(=O)=O)n1 |

| IC50 | SMILES |
| --- | --- |
| inactive | CCOC(=O)N1CCN(C(=O)/C=C/c2c(C)nn(-c3ccc(F)cc3)c2Cl)CC1 |
| > 18.6 µM (inactive) | CS(=O)(=O)c1nc(-c2ccco2)cc(C(F)(F)F)n1 |
| inactive | Cn1c(C(=O)N2CCN(c3ccc([N+](=O)[O-])cc3)CC2)cc2c(=O)[nH]c3ccccc3c21 |
| inactive | COc1ccc(-c2cc(C(F)(F)F)nc(S(=O)(=O)CCCC(=O)Nc3cccnc3Cl)n2)cc1OC |
| > 6.19 µM (inactive) | COc1ccccc1-c1cc(C(F)(F)F)nc(S(=O)(=O)CCCC(=O)N2CCOCC2)n1 |
| inactive | CN1CCN(Cc2nc3ccccc3c(=O)n2Cc2nc(-c3cccc([N+](=O)[O-])c3)cs2)CC1 |
| > 55.7 µM (inactive) | CCOC(=O)N1CCN(C(=O)c2ccc(CSc3ccc(Cl)cc3)cc2)CC1 |
| inactive | CCOC(=O)c1c(C)nc2sc3c(=O)n(-c4ccc(OC)cc4)nnc3c2c1-c1ccc(OC)cc1 |
| > 55.7 µM (inactive) | O=C(c1ccc(Cl)cc1)N1CCN(c2ccnc3cc(Cl)ccc23)CC1 |
| > 55.7 µM (inactive) | Cc1ccccc1-c1noc(N)c1C#N |
| 7.87 µM | Cc1ccc(S(=O)(=O)N2CCN(C(C(=O)Nc3ccc(F)cc3)c3ccccc3)CC2)cc1 (centres undefined) |
| inactive | Cn1nnnc1Sc1ncnc2scc(-c3ccc(F)cc3)c12 |
| inactive | COCC(C)NC(=O)CCS(=O)(=O)c1nc(-c2ccc(OC)cc2)cc(C(F)(F)F)n1 (centres undefined) |
| > 55.7 µM (inactive) | COc1ccccc1CNc1ncnc2cc(Cl)ccc12 |
| inactive | C#Cc1ccc([C@H]2C=C(C(=O)OCC=C)O[C@@H](OCC)[C@@H]2CCCO)cc1 |
| 4.24 µM | CN1CCN(Cc2nc3ccccc3c(=O)n2Cc2nc(-c3ccccc3F)cs2)CC1 |
| inactive | COc1ccc(CNc2ncnc3cc(Cl)ccc23)cc1OC |
| 6.7 µM | Cc1ccc(-c2csc3ncnc(Sc4nnc(CN5CCCCCC5=O)o4)c23)cc1 |
| inactive | COc1ccc(-n2c(SCc3cccnc3)nc3c(c2=O)SCC3)cc1OC |
| inactive | O=C(c1ccco1)N1CCN(c2ncnc3c2[nH]c2ccc(Br)cc23)CC1 |
| inactive | Cc1ccccc1NC(=O)C(=Cc1ccc(C(=O)O)cc1)C(=O)Nc1ccccc1C |
| 8.43 µM | O=C(c1ccc2c(c1)N(Cc1ccccc1)C(=O)c1ccccc1S2)N1CCCC1 |
| inactive | CC1(C)Cc2c(ccc3ccccc23)C2=C(C(=O)N3CCCC3)C(=O)C(=O)N21 |
| 4.42 µM | CCn1c(O)c(/C=N/NC(=O)c2ccncc2)c(=O)n(CC)c1=S |
